The results in this text go back to patent US11453677B2 (priority 2016, dated 2022).

Assay [1] relates to influenza virus H1N1 in MDCK cells. Format: cell-based. As to conditions: MOI 0.005, 48 hours, neuraminidase activity, read-out: NA_VIR_H1N1 EC50. The text has this:
(§1) Influenza Virus Neuraminidase Assay (NA Assay)

Assay [2] concerns influenza virus H3N2 in MDCK cells. Format: cell-based. As to conditions: MOI 0.005, 48 hours, neuraminidase activity, read-out: NA_VIR_H3N2 EC50.
Excerpt: as §1

With `O=c1ccn2c(c1O)-c1ncc(C(F)(F)F)n1C[C@@H]2C(c1ccccc1)c1ccccc1` [Example 58, (S)-6-benzhydryl-11-hydroxy-3-(trifluoromethyl)-5H-imidazo[1,2-a]pyrido[2,1-c]pyrazin-10(6H)-one], the EC50 in assay [1] is 200 nM.
With `Cn1cnc2c1CN(C(c1ccccc1)c1ccccc1)n1ccc(=O)c(O)c1-2` [Example 82, 5-benzhydryl-10-hydroxy-3-methyl-4,5-dihydroimidazo[4,5-d]pyrido[1,2-b]pyridazin-9(3H)-one], the EC50 in assay [2] is 4000 nM; in assay [1], 1000 nM.
On to `O=c1ccn2c(c1O)-c1ncc(CN3CCOCC3)n1C[C@@H]2C(c1ccccc1)c1ccccc1` [Example 67, (S)-6-benzhydryl-11-hydroxy-3-(morpholinomethyl)-5,6-dihydro-10H-imidazo[1,2-a]pyrido[2,1-c]pyrazin-10-one], for which the EC50 in assay [2] amounted to 10000 nM.
